In test [1] the target is T1, Heat shock factor protein 1 (Mus musculus, UniProt P38532).
T1 sequence (P38532 whole entry): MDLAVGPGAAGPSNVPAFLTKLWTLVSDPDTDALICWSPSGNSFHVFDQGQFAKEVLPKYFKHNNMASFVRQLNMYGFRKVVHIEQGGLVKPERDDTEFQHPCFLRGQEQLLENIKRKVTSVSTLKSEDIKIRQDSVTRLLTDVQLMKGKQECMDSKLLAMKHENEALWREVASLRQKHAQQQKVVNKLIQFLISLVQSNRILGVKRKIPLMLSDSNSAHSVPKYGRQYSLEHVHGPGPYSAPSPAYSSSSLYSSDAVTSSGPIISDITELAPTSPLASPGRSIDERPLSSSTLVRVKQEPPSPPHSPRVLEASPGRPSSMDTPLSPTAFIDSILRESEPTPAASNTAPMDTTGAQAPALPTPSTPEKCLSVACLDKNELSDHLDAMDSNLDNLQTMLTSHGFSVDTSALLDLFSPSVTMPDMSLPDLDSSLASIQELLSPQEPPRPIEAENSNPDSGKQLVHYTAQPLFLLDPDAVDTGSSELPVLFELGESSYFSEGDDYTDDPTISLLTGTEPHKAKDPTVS
Description: enhancement of HSF1-driven luciferase signal – cell-based, NIH3T3, luminescence, dose retest, confirmation (AID 435004).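 Note: stress induced by proteasome inhibitor MG132 added 30 min after compound; luciferase reporter driven by HSF1 response element in NIH3T3 cells; actives raise luminescence as potentiators of the MG132 stress response.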 The format is functional.

Test [2] in a line: microbe, parasite or virus in culture. The format is functional. As to conditions: Mycobacterium tuberculosis.
The subject of test [3] is H4. Description: Luminescence Cell-Based Dose Response HTS to Identify Activators of 5'UTR Stem-Loop Driven Prion Protein mRNA Translation in H4 Neuroglioblastoma Cells. [Related pubchem assays: 1829 (Project Summary), 1814 (Primary HTS)]. The format is functional. The conditions noted are these: Homo sapiens.
Test [4] in a line: Luminescence Cell-Based Dose Confirmation HTS to Identify Activators of 5'UTR Stem-Loop Driven Alpha-Synuclein mRNA Translation in H4 Neuroglioblastoma Cells. [Related pubchem assays: 1829 (Project Summary), 1814 (Primary HTS)]. The format is functional.
Test [5] in a line: Luminescence Cell-Based Dose Response HTS to Identify Activators of Luciferase Translation or Activity in H4 […] Cells. [Related pubchem assays: 1829 (Project Summary), 1814 (Primary HTS)]. Format: functional.
Test [6] has as its target T2, Corticotropin-releasing factor receptor 2/Corticotropin-releasing factor-binding protein (Homo sapiens, UniProt P24387+Q13324).
T2 sequence (Q13324 whole entry): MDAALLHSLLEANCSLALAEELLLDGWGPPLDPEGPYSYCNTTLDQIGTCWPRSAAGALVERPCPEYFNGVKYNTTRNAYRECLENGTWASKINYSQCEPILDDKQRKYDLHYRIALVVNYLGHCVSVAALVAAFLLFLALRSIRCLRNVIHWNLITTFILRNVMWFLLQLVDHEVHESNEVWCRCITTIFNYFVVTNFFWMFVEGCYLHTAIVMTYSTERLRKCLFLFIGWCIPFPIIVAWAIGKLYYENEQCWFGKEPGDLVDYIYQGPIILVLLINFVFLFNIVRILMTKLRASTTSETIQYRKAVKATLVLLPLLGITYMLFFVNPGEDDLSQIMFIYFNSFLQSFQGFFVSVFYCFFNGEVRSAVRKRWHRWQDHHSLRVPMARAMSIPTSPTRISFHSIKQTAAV
T2 sequence (P24387 whole entry): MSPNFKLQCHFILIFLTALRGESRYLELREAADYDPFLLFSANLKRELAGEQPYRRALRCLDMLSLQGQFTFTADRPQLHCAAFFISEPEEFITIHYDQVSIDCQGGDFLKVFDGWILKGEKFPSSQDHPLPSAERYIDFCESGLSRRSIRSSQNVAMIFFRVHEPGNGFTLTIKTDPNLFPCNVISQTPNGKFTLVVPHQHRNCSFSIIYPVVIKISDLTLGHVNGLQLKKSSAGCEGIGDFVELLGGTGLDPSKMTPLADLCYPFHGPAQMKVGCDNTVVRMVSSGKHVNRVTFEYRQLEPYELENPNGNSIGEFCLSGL
Description: activators of CRF receptor 2 with binding protein – uHTS hits, confirmation (AID 602473). The format is functional. The conditions noted are these: read-out: EC50_Mean.

The target in test [7] is T3, RNA-binding protein pos-1 (Caenorhabditis elegans, UniProt G5EF15).
T3 sequence (G5EF15 whole entry): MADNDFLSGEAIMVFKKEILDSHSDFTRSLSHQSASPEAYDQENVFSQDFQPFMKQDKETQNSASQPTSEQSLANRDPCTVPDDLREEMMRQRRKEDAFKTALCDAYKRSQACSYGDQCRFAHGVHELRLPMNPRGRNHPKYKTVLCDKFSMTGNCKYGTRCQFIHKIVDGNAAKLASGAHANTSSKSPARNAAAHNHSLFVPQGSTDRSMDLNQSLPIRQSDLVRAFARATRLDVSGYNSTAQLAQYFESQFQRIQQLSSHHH
Kind of test: disruptors of C. elegans POS-1 RNA interaction – biochemical, fluorescence polarization, dose response (AID 1964).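 Note: purified POS-1 fused to maltose binding protein made in E. coli; potency of compounds blocking POS-1 binding to fluorescent RNA.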 A general note: In fluorescence polarisation assays a small probe gives low polarisation when free and higher when bound to something large.

The nature of test [8]: cells. The format is functional.
The nature of test [9]: Luminescence Cell-Based Dose Confirmation HTS to Identify Inhibitors of Platelet Dense Granule Release. [Related pubchem assays: 1663 (Primary HTS), 1678 (Summary of Project)]. Format: functional.
The target of test [10] is Luciferin 4-monooxygenase (Photinus pyralis, UniProt P08659). Kind of test: inhibition of purified Photinus pyralis luciferase – biochemical, luminescence, dose response (AID 1891).
Test [11] is described as follows: Luminescence Cell-Based Dose Retest to Confirm Inhibitors of Cancer Stem Cells. [Related pubchem assays (depositor defined):AID2717, AID2721]. Format: functional. As to conditions: Homo sapiens.
A short description of test [12]: alpha-synuclein stem-loop luciferase translation blockers – H4 neuroglioma cells, luminescence, confirmation (AID 1988). The format is functional, cell-based.
A short description of test [13]: Luminescence Cell-Based Dose Response HTS to Identify Inhibitors of 5'UTR Stem-Loop Driven Prion Protein mRNA Translation in H4 Neuroglioblastoma Cells. [Related pubchem assays: 1827 (Project Summary), 1813 (Primary HTS)]. Format: functional.
The nature of test [14]: viability of uninfected HEp-2 cells – cell-based, HTS, cytotoxicity control for RSV inhibitor project, dose response (AID 2410). Format: functional. The conditions noted are these: human respiratory syncytial virus.

Activity calls are given as the source filed them. Cut-off read from the data, not from the text of the source, for most assays here: actives have a measured EC50 and inactives only a lower limit. A value given as a limit tells only on which side of the number the result lay.

By IC50 is commonly meant the point on the concentration scale where inhibition reaches its midpoint. The term AC50 denotes the midpoint of the concentration-response curve, whichever way the signal moves.
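Throughout, for AC50: cells exposed to compound for roughly 70 hours or longer before luminescence read.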

Sequence of Luciferin 4-monooxygenase (P08659 whole entry): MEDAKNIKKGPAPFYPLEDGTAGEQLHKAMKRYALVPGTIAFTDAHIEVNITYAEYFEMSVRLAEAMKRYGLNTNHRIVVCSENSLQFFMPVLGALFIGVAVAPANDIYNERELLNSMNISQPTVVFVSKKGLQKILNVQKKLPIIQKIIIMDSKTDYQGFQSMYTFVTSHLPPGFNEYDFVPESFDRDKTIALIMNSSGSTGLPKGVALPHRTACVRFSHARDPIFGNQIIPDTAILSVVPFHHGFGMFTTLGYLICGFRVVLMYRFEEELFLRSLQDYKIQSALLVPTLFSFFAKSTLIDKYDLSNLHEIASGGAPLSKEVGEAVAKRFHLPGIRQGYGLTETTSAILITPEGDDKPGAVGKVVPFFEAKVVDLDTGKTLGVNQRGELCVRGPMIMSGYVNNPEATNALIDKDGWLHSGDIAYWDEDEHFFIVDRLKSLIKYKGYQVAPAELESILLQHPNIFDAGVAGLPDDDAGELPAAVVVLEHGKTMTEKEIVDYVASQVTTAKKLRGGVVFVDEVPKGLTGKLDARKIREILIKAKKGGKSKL

With `COC(=O)CC1C(=O)NCCN1C(=O)c1ccc(S(=O)(=O)N2CCOCC2)cc1` (stereo not given), in [1], the EC50 is > 260 µM (inactive).

As for `CSC1=NC(/C=C/c2ccc(Cl)cc2)=CC(C)(C)N1`, the CC50 in test [2] was 11.1 µM (active). The EC50 in test [3] was > 120 µM (not active); in [4], 14.3 µM (active); in test [5], > 120 µM (not active).

For `COc1cc(S(=O)(=O)Nc2ccc(C)cc2)ccc1N/C=C1\C(=O)N(C)C(=O)C(C#N)=C1C`, the figures for the EC50 in [6] and in test [7] were > 53 µM (inactive) and 2.83 µM (active), respectively.

In the case of `O=C(O)c1cccc(S(=O)(=O)N2CCC(n3nnc4cc(C(F)(F)F)ccc43)CC2)c1`, in [1], the EC50 was > 260 µM (inactive).

In the case of `Cc1cc(/C=C2\C(=O)NC(=O)N(c3ccc(Br)cc3)C2=O)c(C)n1C`, the EC50 in test [7] is 59.7 µM (active).

Take `Cc1cc2oc(=O)cc(CSc3nc(N)cc(N)n3)c2cc1C`: the EC50 in [1] is > 260 µM (inactive).

`COc1ccc(C(=O)C2CCCN(Cc3ccc(C)s3)C2)c(OC)c1` (stereo not given): the EC50 in test [1] is > 260 µM (inactive).

Turning to `COc1ccc(C2NC(=O)CCC2[N+](=O)[O-])c(OC)c1` (stereo not given), in test [1], the EC50 is > 260 µM (inactive).

As for `CCc1cc(C(c2ccccc2OC)N2CCOCC2)c(NC(=O)c2ccccc2)s1` (stereo not given), the EC50 in test [1] was 7.34 µM (active).

As for `CC(C)Cc1cc(C(=O)Nc2ccc(F)cc2F)no1`, the IC50 in [8] is 12 µM (active).

`Nc1ccc2cc(Br)ccc2c1`: the IC50 in test [8] was 25.7 µM (active).

For the compound `CCn1nnc(NC(=O)c2ccc(-c3ccc(Cl)cc3)o2)n1`, in test [8], the concentration for half-maximal inhibition (IC50) was > 50 µM (active).

On to `NC(=O)COc1ccccc1`, for which the EC50 in test [1] was > 260 µM (inactive).

For `Nc1cccc(-c2nc3ccccc3s2)c1`, the EC50 in test [9] was 7.77 µM (active); in test [10], 3.81 µM (active).

On to `O=C(CCNC(=O)C1CCN(S(=O)(=O)c2ccc(F)cc2)CC1)NCc1ccc(Cl)cc1`, for which the EC50 in test [9] and in test [10] was > 112 µM (not active) in each case.

With `CC(C)(C)OC(=O)NCCCCCc1nnc(SCc2ccc(F)cc2)o1`, in test [2], the CC50 was > 40 µM (active).

In the case of `Cc1ccccc1-n1c(=O)cc(N2CCN(C(=O)c3ccco3)CC2)[nH]c1=O`, the EC50 in [9] and in test [10] was > 112 µM (not active) each time.

With `CN(Cc1ccco1)c1ncnc2ccc(-c3ccc4c(ccn4C)c3)cc12`, in [2], the CC50 was 15.4 µM (active). Further, the half-maximal activity concentration (AC50) in test [11] was 0.499 µM (active).

Consider `CCOc1ccccc1C(=O)Nc1cnc(O)nc1O`, for which the EC50 in test [9] is 0.125 µM (active); in [12] it was > 120 µM (not active); in [13], > 120 µM (not active); in test [10], > 112 µM (not active). Moreover, the CC50 in [14] is > 50 µM (active).

With `Nc1nnc(SCc2c(F)cccc2Cl)s1`, the EC50 in [1] is > 260 µM (inactive).

On to `O=S(=O)(NCCc1cn2ccccc2n1)c1ccc2c(c1)CCCC2`, for which the EC50 in [9] and in [10] was > 112 µM (not active) throughout.

Regarding `O=C(N/N=C/C=C/c1cccc([N+](=O)[O-])c1)c1ccncc1`, in [8], the IC50 is 34.9 µM (active).

`CCO[C@H]1OC(C(=O)NCc2nc3ccccc3[nH]2)=C[C@@H](c2csc3ccccc23)[C@@H]1CCCO`: the CC50 in [2] was > 40 µM (active).

With `CC(/C=C/c1cccc([N+](=O)[O-])c1)=N\NC(=O)c1ccncc1`, in test [8], the IC50 is 0.94 µM (active).

As to `CCC(=O)Oc1ccc(C(=O)Nc2ccc3c(c2)C(=O)N(C2CCCCC2)C3=O)cc1`, the CC50 in test [2] was 39.9 µM (active).

Turning to `O=C(Nn1cnnc1)c1ccccc1CCc1ccccc1`, the EC50 in test [9] and in test [10] was > 112 µM (not active) in each case.

The values above are taken from ChEMBL document CHEMBL1201862, “PubChem BioAssay data set” (2004).
